Test results from US9487553B2, “Boranophosphate analogues of cyclic nucleotides” (BIOLOG LIFE SCIENCE INSTITUTE FORSCHUNGSLABOR UND …, priority 2011, dated 2016).
Blank lines part the entries; values can stand above or below the molecule they belong to.

Experiments:
[1] = Degradation Example 6: oxidation with hydrogen peroxide, monitored by HPLC; assay type: physicochemical; details: after 1 hour at RT
Protocol: Thus, 0.1 μmol of the cyclic boranophosphate 2-chloroadenosine-3′,5′-cyclic boranophosphate, Sp-isomer (Sp-2-Cl-cAMPB, example 71) and 0.1 μmol of the corresponding phosphorothioate 2-chloroadenosine-3′,5′-cyclic phosphorothioate, Rp-isomer (Rp-2-Cl-cAMPS, Biolog) as a control, were each dissolved in 100 μl of water, combined and treated with 10 μl of 30% aqueous hydrogen peroxide (Merck), and another 10 μl after one hour. During 2.5 hours, oxidative degradation was monitored by HPLC (RP-18, 15 Vol.-% acetonitrile, 20 mM triethylammonium formate buffer, pH 6.5, 1.5 ml/min., UV 262 nm). Corresponding peak areas were recorded, integrated and compared (Tab. 5).

[2] = Degradation Example 4: oxidation with hydrogen peroxide, monitored by HPLC; assay type: physicochemical; details: after 3 hours at RT
Protocol: As a control, the corresponding cyclic nucleotide with phosphorothioate modification (Rp-8-BT-2′-O-Me-cAMPS, Biolog) had been added. The oxidation process was monitored by reversed phase HPLC (RP-18, 30 Vol.-% acetonitrile, 20 mM triethylammonium formate buffer, pH 8.3, 2 ml/min, UV 282 nm). The areas of both peaks were recorded, integrated and compared (Tab. 2).

PDE IV (A4B) = molecular target: T1, PDE IV (A4B) (Homo sapiens, UniProt P27815); assay: Stability against PDE IV, HPLC; assay type: in vitro ADME; details: several days
T1 construct: Houslay lab, Glasgow/Scotland (obtained from another laboratory)
T1 sequence (P27815 whole entry): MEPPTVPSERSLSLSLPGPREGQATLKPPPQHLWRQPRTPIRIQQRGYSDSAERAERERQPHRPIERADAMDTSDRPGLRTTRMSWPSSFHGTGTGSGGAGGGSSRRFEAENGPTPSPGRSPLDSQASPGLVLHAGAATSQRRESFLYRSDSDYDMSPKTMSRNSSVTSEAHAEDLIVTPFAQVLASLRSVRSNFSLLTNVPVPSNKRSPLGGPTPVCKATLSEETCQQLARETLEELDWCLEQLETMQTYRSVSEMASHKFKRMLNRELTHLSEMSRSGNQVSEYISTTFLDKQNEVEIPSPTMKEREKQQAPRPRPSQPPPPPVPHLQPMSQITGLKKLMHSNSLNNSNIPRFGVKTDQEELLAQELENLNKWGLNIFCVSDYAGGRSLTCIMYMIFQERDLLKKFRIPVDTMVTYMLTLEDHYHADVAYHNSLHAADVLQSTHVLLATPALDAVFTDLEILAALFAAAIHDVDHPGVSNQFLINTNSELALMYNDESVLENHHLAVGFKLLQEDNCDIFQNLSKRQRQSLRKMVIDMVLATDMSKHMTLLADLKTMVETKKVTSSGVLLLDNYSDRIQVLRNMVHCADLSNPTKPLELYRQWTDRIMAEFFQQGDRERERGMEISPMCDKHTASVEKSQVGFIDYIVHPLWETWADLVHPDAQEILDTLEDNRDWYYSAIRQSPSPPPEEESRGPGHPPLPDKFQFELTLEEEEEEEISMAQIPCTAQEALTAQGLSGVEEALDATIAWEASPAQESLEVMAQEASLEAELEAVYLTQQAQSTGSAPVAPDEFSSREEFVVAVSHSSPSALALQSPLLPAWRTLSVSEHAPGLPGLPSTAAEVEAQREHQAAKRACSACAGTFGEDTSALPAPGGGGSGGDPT
Protocol: Next, stability of the disclosed boranophosphates against PDE IV (A4B, Houslay lab, Glasgow/Scotland) was tested in similar experiments as described above.

PDE 1 from bovine heart = assay: Resistance towards phosphodiesterase: incubation with PDE 1 from bovine heart, HPLC; details: PDE 1 from bovine heart, up to 8 days of incubation
Protocol: (§1) For this purpose 0.1 μmol of Rp-8-bromoadenosine-3′,5′-cyclic boranophosphate (example 1) and Sp-8-bromoadenosine-3′,5′-cyclic boranophosphate […] dissolved in TRIS buffer pH 7.2 containing calcium chloride and calmodulin and incubated with PDE type I from bovine brain (Sigma-Aldrich) at 37° C. Activity of the enzyme was checked by hydrolysis of cyclic AMP. Stability was monitored by HPLC (RP-18, 11 Vol.-% propanol-2, 20 mM TEAF buffer, pH 6.8, 1 ml/min., UV 264 nm). […] This strategy of testing PDE performance was applied accordingly in degradation examples 10 and 11.
(§2) Thus, Rp-8-Br-cAMPB (example 1) and Sp-8-Br-cAMPS (Biolog, Bremen/Germany) were incubated with PDE 1 from bovine heart (Sigma-Aldrich) and monitored by HPLC as described above.
(§3) Rp-2′-O-Me-cAMPB (example 7) and Sp-2′-O-Me-cAMPS (Biolog, Bremen/Germany).

[3] = system: PDE type I from bovine brain; assay: Resistance towards phosphodiesterase: incubation with PDE type I from bovine brain, HPLC; details: PDE type I from bovine brain, 37° C., up to 8 days
Protocol: Activity of the enzyme was checked by hydrolysis of cyclic AMP. Stability was monitored by HPLC (RP-18, 11 Vol.-% propanol-2, 20 mM TEAF buffer, pH 6.8, 1 ml/min., UV 264 nm).

[4] = molecular target: protein kinase A type I alpha holoenzyme (Homo sapiens, UniProt P10644); assay: Standard photometric (Cook) assay with protein kinase A type I alpha holoenzyme; assay type: biochemical; details: holoenzyme RIα
Chain of protein kinase A type I alpha holoenzyme (P10644 whole entry): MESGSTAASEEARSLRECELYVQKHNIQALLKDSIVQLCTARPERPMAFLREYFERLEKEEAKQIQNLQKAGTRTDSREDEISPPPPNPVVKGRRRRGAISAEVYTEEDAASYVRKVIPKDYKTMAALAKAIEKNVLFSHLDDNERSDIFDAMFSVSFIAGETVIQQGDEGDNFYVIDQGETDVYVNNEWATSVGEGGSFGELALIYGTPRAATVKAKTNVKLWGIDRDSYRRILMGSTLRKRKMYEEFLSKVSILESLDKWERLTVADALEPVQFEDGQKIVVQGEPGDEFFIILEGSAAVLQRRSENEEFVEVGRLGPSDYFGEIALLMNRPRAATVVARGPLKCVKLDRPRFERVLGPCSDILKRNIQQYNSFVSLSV
Description: In a first experiment, the biological activity of the Rp- and Sp-isomer of 8-bromoadenosine-3′,5′-cyclic boranophosphate (examples 1 and 2) has been tested with the holoenzyme of protein kinase A type I alpha (FIGS. 3 and 4) using a standard photometric assay (Cook, P. F.; Neville, M. E., Jr.; Vrana, K. E.; Hartl, F. T. and Roskoski, R., Jr., Biochemistry 21, 5794-5799 (1982)).
As a control, two boranophosphate analogues with a 2′-O-methyl modification (Rp-2′-O-Me-cAMPB and Sp-2′-O-Me-cAMPB, examples 7 & 8) have been tested by the same type of assay with protein kinase A type I alpha as well.
FIG. 5 depicts the activity overview of four different cyclic boranophosphate analogues with protein kinase A type I alpha holoenzyme. 9108: Sp-2′-O-Me-cAMPB; 9109: Rp-2′-O-Me-cAMPB; 9110: Sp-8-Br-cAMPB; 9111: Rp-8-Br-cAMPB; controls: B 001: Rp-8-Br-cAMPS. Control: cAMP. “Cook Assay” with Holoenzyme RIα.

[5] = Degradation Example 8: oxidation with hydrogen peroxide, monitored by HPLC; assay type: physicochemical; details: after 1 hour at RT
Protocol: Finally, with the Sp-isomer of 8-bromoguanosine-3′,5′-cyclic boranophosphate (Sp-8-Br-cGMPB, example 6) also the oxidative stability of a cyclic boranophosphate with a modified guanine nucleobase was investigated and again compared to the corresponding phosphorothioate Rp-8-bromoguanosine-3′,5′-cyclic phosphorothioate (Rp-8-Br-cGMPS, Biolog).
Both compounds were treated together with two 10 μl doses of 30% aqueous hydrogen peroxide (Merck). During more than four hours, oxidative degradation was monitored by HPLC (RP-18, 15 Vol.-% acetonitrile, 20 mM triethylammonium formate buffer, pH 6.5, 1.5 ml/min., UV 263 nm) and corresponding peak areas were recorded and compared (Tab. 7).

[6] = molecular target: protein kinase A type II alpha holoenzyme (Homo sapiens, UniProt P13861); assay: Photometric (Cook) assay with protein kinase A type II alpha holoenzyme; assay type: biochemical; details: activation of protein kinase A type II; data not shown
Chain of protein kinase A type II alpha holoenzyme (P13861 whole entry): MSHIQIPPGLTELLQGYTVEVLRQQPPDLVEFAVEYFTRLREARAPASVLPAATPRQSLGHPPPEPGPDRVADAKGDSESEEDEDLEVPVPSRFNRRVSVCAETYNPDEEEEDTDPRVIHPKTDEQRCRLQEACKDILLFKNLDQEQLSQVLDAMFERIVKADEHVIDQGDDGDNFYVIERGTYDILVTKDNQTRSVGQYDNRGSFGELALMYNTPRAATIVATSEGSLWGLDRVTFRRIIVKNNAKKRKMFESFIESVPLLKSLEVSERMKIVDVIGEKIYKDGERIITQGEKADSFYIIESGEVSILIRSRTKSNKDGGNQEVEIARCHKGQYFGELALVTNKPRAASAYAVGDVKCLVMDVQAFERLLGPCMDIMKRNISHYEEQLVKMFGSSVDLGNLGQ
Description: In another similar experiment the properties of Rp- and Sp-8-Br-cAMPB towards protein kinase A type II a were investigated in the photometric assay (Cook, P. F., Neville, M. E., Jr., Vrana, K. E., Hartl, F. T. and Roskoski, R., Jr., Biochemistry 21, 5794-5799 (1982))

PDE 1 = assay: Resistance towards phosphodiesterase: incubation with PDE 1 from bovine heart, HPLC; details: bovine, pH 7.2
Protocol: as §1, §2, §3

[7] = molecular target: T2, protein kinase G type I α, activated by cGMP (Homo sapiens, UniProt Q13976); assay: Suppression of cGMP-stimulated protein kinase G type I alpha activity; assay type: biochemical; details: 10 nM, 100 nM and 1 μM; cGMP 200 nM
T2 sequence (Q13976 1-671): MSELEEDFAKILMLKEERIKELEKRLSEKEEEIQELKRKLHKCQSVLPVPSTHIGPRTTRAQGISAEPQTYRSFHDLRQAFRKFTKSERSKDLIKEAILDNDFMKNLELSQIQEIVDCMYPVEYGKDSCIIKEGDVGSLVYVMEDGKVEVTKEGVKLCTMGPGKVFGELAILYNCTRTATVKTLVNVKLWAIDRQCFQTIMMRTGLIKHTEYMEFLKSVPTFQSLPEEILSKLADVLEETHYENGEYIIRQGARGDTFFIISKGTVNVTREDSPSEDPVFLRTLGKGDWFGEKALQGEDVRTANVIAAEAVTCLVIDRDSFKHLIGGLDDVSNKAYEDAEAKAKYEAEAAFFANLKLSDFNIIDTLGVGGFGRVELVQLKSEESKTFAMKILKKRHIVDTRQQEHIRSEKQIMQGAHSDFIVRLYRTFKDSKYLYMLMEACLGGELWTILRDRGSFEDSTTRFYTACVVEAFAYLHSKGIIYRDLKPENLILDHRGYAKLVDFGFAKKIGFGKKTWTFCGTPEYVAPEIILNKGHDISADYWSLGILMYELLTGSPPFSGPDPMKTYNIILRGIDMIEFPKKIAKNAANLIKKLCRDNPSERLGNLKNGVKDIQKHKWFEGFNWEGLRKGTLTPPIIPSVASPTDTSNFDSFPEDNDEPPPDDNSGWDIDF

peak area, % of the original area [1]: 90%
Molecule: 2-Chloroadenosine-3′,5′-cyclic boranophosphate, Rp-isomer [Rp-2-Cl-cAMPB]

Molecule: 8-Benzylthio-2′-O-methyladenosine-3′,5′-cyclic boranophosphate, SP-isomer [Sp-8-BT-2′-O-Me-cAMPB]
peak area, % of the original area [2]: 73%

Molecule: Nc1nc(Cl)nc2c1ncn2[C@@H]1O[C@@H]2COP(O)(=S)OC2[C@@H]1O (single isomer, unassigned) [Rp-2-Cl-cAMPS, 2-chloroadenosine-3′,5′-cyclic phosphorothioate, Rp-isomer, reference compound]
degraded [1]: 22%

stability against PDE IV (PDE IV (A4B)): completely stable
degradation by PDE (PDE 1 from bovine heart): stable over the whole assay period
degradation by PDE [3]: stable over the whole assay period
Molecule: B[PH]1(O)OC[C@H]2O[C@@H](n3cnc4c(N)ncnc43)C(OC)[C@@H]2O1 (stereo partly drawn) [Rp-2′-O-Me-cAMPB, 2′-O-Methyladenosine-3′,5′-cyclic boranophosphate, Rp-isomer]
effect on protein kinase A type I alpha holoenzyme [4]: neither Rp- nor Sp-2′-O-Me-cAMPB did modulate the kinase in any way

Molecule: Nc1nc2c(nc(Br)n2[C@@H]2O[C@@H]3COP(O)(=S)O[C@H]3[C@H]2O)c(=O)[nH]1 (stereo partly drawn) [Rp-8-Br-cGMPS, Rp-8-bromoguanosine-3′,5′-cyclic phosphorothioate, reference compound]
degraded [5]: 15%

Molecule: Nc1ncnc2c1nc(Br)n2C1OC2COP(O)(=S)OC2C1O (stereo not drawn) [Sp-8-Br-cAMPS, Sp-8-bromoadenosine-3′,5′-cyclic phosphorothioate, reference compound]
EC50 [6]: 710 nM
half-life (PDE 1): ~50 h

peak area, % of the original area [5]: 65%
antagonism of protein kinase G [7]: showed antagonistic potential
Molecule: B[PH]1(O)OC[C@H]2O[C@@H](n3c(Br)nc4c(=O)[nH]c(N)nc43)C(O)[C@@H]2O1 (stereo partly drawn) [Sp-8-Br-cGMPB, 8-Bromoguanosine-3′,5′-cyclic boranophosphate, Sp-isomer]
